Experimental data: patent EP4678638A1, “NEW E3 UBIQUITIN LIGASE LIGAND, PROTEIN DEGRADATION AGENT AND USE THEREOF” (priority 2023, dated 2024)
Where two headings read alike, the source gives them in different places.

Tests used:
H1975 = experiment: CCK-8 proliferation, NCI-H1975 (H1975); assay type: cell-based, Human; settings: Homo sapiens, read-out: Inhibitory activity (IC50) on tumor cell proliferation, H1975
In short: (§1)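 CCK-8 viability readout; IC50 from growth-inhibition curve fitting. Cells plated, dosed 24h later with a 10-point series, top 10µM, 5-fold steps. Culture at 37°C, 5% CO2.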

MM.1R = experiment: CCK-8 proliferation, MM.1R; assay type: cell-based; settings: CCK-8, 72 hours, read-out: Inhibitory activity (IC50) on tumor cell proliferation, MM.1R
Method: (§2) The tumor cells used herein were cultured in a cell culture medium listed in table A1 at 37°C in an incubator with 5% CO2. Prior to experimentation, all cell lines used were correctly identified by STR profiling, and tested negative for mycoplasma contamination using a mycoplasma detection kit through routine screenings. Table A1. Tumor cells and cell culture medium used in the present disclosure
(§3) IC50 values of the compounds of the present disclosure (including the compounds in Table 1, and compounds of examples) were measured using the Meilun Cell Counting Kit-8 kit from Dalian Meilun Biotech Co., Ltd. Assay details are as follows: tumor cells were seeded in a 96-well plate at a density listed in Table A2. After 24h, 100 µL of the inoculated cells were treated with 0.5µL of the compounds of the present disclosure (including the compounds in Tables 1 and 2, and compounds of examples) at 10 different successively decreasing concentrations (starting at the highest concentration of 10µM; 5-fold serial dilutions). After the cells were treated with the compounds of the present disclosure for a period of time, the cell viability detection reagent was added to the culture medium for cell viability assessment according to the instructions provided with the CCK-8 kit. […] The growth inhibition of the compounds of the present disclosure on cells was plotted by Prism Graphpad software, and the IC50 values of the compounds of the present disclosure were calculated therefrom. […] Seeding protocol and treatment time for tumor cells

MCF7 = experiment: CCK-8 proliferation, MCF7 (MCF-7); assay type: cell-based; settings: Homo sapiens, MCF7; CCK-8; read-out: Inhibitory activity (IC50) on tumor cell proliferation, MCF7
In short: as §1

SR = experiment: CCK-8 proliferation, SR; assay type: cell-based, Human; settings: Homo sapiens, SR; CCK-8; 72 hours; read-out: Inhibitory activity (IC50) on tumor cell proliferation, SR
In short: as §1

CCRF-CEM = experiment: CCK-8 proliferation, CCRF-CEM; assay type: cell-based, Human; settings: Homo sapiens, CCRF-CEM; CCK-8; 96 hours; read-out: Inhibitory activity (IC50) on tumor cell proliferation, CCRF-CEM
In short: as §1

Kasumi-1 = experiment: CCK-8 proliferation, Kasumi-1; assay type: cell-based, Human; settings: Homo sapiens, Kasumi 1, 72 hours, read-out: Inhibitory activity (IC50) on tumor cell proliferation, Kasumi-1
Method: as §2, §3

MM.1S = experiment: CCK-8 proliferation, MM.1S; assay type: cell-based; settings: Homo sapiens, MM1.S; CCK-8; 72 hours; read-out: Inhibitory activity (IC50) on tumor cell proliferation, MM1S
In short: as §1

CDK4 = target: T1, CDK4 (Homo sapiens, UniProt P11802); experiment: Western blot degradation of CDK4 (MDA-MB-231 Cell); assay type: cell-based; settings: Table D3
T1 construct: evaluate the effects of the compounds of the present disclosure on the expression of target proteins in cells; endogenous in cells; host or cells: MDA-MB-231
In short: (§4)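 Degradation is assessed by immunoblotting lysates of treated cells. Target bands are quantified by grayscale and normalised to an internal control, so degradation rate equals 100% minus % remaining.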

CDK6 = target: T2, CDK6 (Homo sapiens, UniProt Q00534); experiment: Western blot degradation of CDK6 (MDA-MB-231 Cell); assay type: cell-based; settings: Table D3
T2 construct: evaluate the effects of the compounds of the present disclosure on the expression of target proteins in cells; endogenous in cells; host or cells: MDA-MB-231
In short: as §4

MV-4-11 = experiment: CCK-8 proliferation, MV-4-11; assay type: cell-based, Human; settings: Homo sapiens, MV4-11; CCK-8; 72 or 96 hours; read-out: Inhibitory activity (IC50) on tumor cell proliferation, MV-4-11
In short: as §1

22RV1 = experiment: CCK-8 proliferation, 22RV1; assay type: cell-based; settings: Homo sapiens, 96 hours, read-out: Inhibitory activity (IC50) on tumor cell proliferation, 22RV1
Method: as §2, §3

[1] = target: T3, human Cereblon WT GST-tagged protein (Homo sapiens, UniProt Q96SW2); experiment: CRBN binding, HTRF (CEREBLON BINDING kit); settings: Table II-2, CRBN binding screening, HTRF
T3 construct: purchased CISBIO 64BDCRBNPEH
In short: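 Competitive HTRF: GST-tagged human WT Cereblon mixed with compound, Thalidomide-Re tracer and GST Eu antibody, incubated 3 h at room temperature. Signals read at 620 and 665 nm.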

T2 sequence (Q00534 whole entry): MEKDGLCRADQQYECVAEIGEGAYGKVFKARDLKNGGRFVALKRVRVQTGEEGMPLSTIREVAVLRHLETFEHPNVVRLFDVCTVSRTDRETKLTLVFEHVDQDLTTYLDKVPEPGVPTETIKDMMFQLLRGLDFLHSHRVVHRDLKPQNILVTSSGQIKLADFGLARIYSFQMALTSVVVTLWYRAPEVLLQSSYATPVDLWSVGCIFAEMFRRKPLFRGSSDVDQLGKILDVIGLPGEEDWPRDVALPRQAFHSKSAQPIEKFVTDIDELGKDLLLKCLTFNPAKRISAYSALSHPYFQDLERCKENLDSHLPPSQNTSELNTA
T1 sequence (P11802 whole entry): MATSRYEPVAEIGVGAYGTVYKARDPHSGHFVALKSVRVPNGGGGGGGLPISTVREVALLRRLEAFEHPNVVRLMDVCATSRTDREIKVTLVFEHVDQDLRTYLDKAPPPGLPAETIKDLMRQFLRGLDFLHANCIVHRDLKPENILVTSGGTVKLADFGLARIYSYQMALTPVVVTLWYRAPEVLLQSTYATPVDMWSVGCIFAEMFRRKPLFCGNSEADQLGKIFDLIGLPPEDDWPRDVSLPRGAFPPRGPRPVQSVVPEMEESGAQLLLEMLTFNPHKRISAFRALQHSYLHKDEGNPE
T3 sequence (Q96SW2 whole entry): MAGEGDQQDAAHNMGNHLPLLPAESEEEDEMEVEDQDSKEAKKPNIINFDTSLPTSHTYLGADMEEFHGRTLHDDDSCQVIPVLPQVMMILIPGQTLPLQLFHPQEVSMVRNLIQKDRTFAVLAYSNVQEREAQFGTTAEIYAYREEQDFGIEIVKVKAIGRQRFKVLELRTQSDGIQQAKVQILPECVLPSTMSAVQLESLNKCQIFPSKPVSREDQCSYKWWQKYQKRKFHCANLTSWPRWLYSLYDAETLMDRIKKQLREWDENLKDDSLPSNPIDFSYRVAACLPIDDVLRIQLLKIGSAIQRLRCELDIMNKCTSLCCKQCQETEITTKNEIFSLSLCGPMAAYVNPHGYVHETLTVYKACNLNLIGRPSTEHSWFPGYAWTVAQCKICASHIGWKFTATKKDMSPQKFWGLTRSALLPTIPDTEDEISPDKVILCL

| Structure (SMILES) | IC50 (H1975; NCI-H1975, CCK-8, 96 hours) | IC50 (MM.1R) | IC50 (MCF7) | IC50 (SR) | IC50 (CCRF-CEM) | IC50 (Kasumi-1) | IC50 (MM.1S) | Degradation of substrate protein CDK4 (substrate protein remaining %) (CDK4) | Degradation of substrate protein CDK6 (substrate protein remaining %) (CDK6) | IC50 (MV-4-11) | IC50 (22RV1) | inhibition at 0.5 µM ([1]; at 0.5µM, read-out: Inhibition rate (%) at 0.5µM) | inhibition at 2 µM ([1]; at 2 µM, read-out: Inhibition rate (%) at 2 µM) | IC50 (H1975; NCI-H1975, 96 h) |
| --- | --- | --- | --- | --- | --- | --- | --- | --- | --- | --- | --- | --- | --- | --- |
| Cc1nc2c(F)cc(-c3nc(Nc4ccc(N5CCC(N6CCN(Cc7ccc(C8CCC(=O)NC8=O)c(F)c7)CC6)CC5)cn4)ncc3F)cc2n1C(C)C (stereo not drawn) [GT-03906, 3-(2-fluoro-4-((4-(1-(6-((5-fluoro-4-(4-fluoro-1-isopropyl-2-methyl-1H-benzo[d]imidazol-6-yl)pyrimidin-2-yl)amino)pyridin-3-yl)piperidin-4-yl)piperazin-1-yl)methyl)phenyl)piperidine-2,6-dione] | 100 to 500 nM | 50 to 100 nM | 100 to 500 nM | 50 to 100 nM | 100 to 500 nM | 50 to 100 nM | 10 to 50 nM | A (A is defined as 0% ≤ substrate protein remaining % ≤ 80%) | A (A is defined as 0% ≤ substrate protein remaining % ≤ 80%) |  |  |  |  |  |
| CC(=O)c1c(C)c2cnc(Nc3ccc(N4CCC(N5CCN(Cc6ccc(C7CCC(=O)NC7=O)cc6)CC5)CC4)cn3)nc2n(C2CCCC2)c1=O (stereo not drawn) [GT-06659, 3-(4-((4-(1-(6-((6-acetyl-8-cyclopentyl-5-methyl-7-oxo-7,8-dihydropyrido[2,3-d]pyrimidin-2-yl)amino)pyridin-3-yl)piperidin-4-yl)piperazin-1-yl)methyl)phenyl)piperidine-2,6-dione] |  |  | 100 to 500 nM |  | 100 to 500 nM | 100 to 500 nM |  | A (A is defined as 0% ≤ substrate protein remaining % ≤ 80%) | A (A is defined as 0% ≤ substrate protein remaining % ≤ 80%) | 100 to 500 nM | 10 to 50 nM |  |  |  |
| Cc1nc2c(F)cc(-c3nc(Nc4ccc(CN5CCN(Cc6ccc(C7CCC(=O)NC7=O)cc6)CC5)cn4)ncc3F)cc2n1C(C)C (stereo not drawn) [GT-06664, 3-(4-((4-((6-((5-fluoro-4-(4-fluoro-1-isopropyl-2-methyl-1H-benzo[d]imidazol-6-yl)pyrimidin-2-yl)amino)pyridin-3-yl)methyl)piperazin-1-yl)methyl)phenyl)piperidine-2,6-dione] | 500 to 1000 nM |  |  | 100 to 500 nM | 500 to 1000 nM | 100 to 500 nM |  | A (A is defined as 0% ≤ substrate protein remaining % ≤ 80%) | B (B is defined as substrate protein remaining % > 80%) | 10 to 50 nM | 50 to 100 nM |  |  |  |
| Cc1nc2c(F)cc(-c3nc(Nc4ccc(CN5CCN(Cc6ccc(N7CCC(=O)NC7=O)cc6)CC5)cn4)ncc3F)cc2n1C(C)C [GT-06665, 1-(4-((4-((6-((5-fluoro-4-(4-fluoro-1-isopropyl-2-methyl-1H-benzo[d]imidazol-6-yl)pyrimidin-2-yl)amino)pyridin-3-yl)methyl)piperazin-1-yl)methyl)phenyl)dihydropyrimidine-2,4(1H,3H)-dione] | 100 to 500 nM |  | 100 to 500 nM | 100 to 500 nM | 500 to 1000 nM | 100 to 500 nM |  | A (A is defined as 0% ≤ substrate protein remaining % ≤ 80%) | A (A is defined as 0% ≤ substrate protein remaining % ≤ 80%) | 10 to 50 nM | 10 to 50 nM |  |  |  |
| Cc1nc2c(F)cc(-c3nc(Nc4ccc(CN5CCN(Cc6ccc(N7CCC(=O)NC7=O)cn6)CC5)cn4)ncc3F)cc2n1C(C)C [GT-06667, 1-(6-((4-((6-((5-fluoro-4-(4-fluoro-1-isopropyl-2-methyl-1H-benzo[d]imidazol-6-yl)pyrimidin-2-yl)amino)pyridin-3-yl)methyl)piperazin-1-yl)methyl)pyridin-3-yl)dihydropyrimidine-2,4(1H,3H)-dione] |  |  | 100 to 500 nM | 100 to 500 nM | 100 to 500 nM | 100 to 500 nM |  | A (A is defined as 0% ≤ substrate protein remaining % ≤ 80%) | A (A is defined as 0% ≤ substrate protein remaining % ≤ 80%) | 10 to 50 nM | 50 to 100 nM |  |  |  |
| Cc1nc2c(F)cc(-c3nc(Nc4ccc(N5CCC(N(C)Cc6ccc(C7CCC(=O)NC7=O)cc6)CC5)cn4)ncc3F)cc2n1C(C)C (stereo not drawn) [GT-06735, 3-(4-(((1-(6-((5-fluoro-4-(4-fluoro-1-isopropyl-2-methyl-1H-benzo[d]imidazol-6-yl)pyrimidin-2-yl)amino)pyridin-3-yl)piperidin-4-yl)(methyl)amino)methyl)phenyl)piperidine-2,6-dione] | 100 to 500 nM |  |  | 50 to 100 nM | 100 to 500 nM | 100 to 500 nM | 100 to 500 nM | A (A is defined as 0% ≤ substrate protein remaining % ≤ 80%) | A (A is defined as 0% ≤ substrate protein remaining % ≤ 80%) | 10 to 50 nM | 10 to 50 nM |  |  |  |
| Cc1nc2c(F)cc(-c3nc(Nc4ccc(N5CCC(N6CCN(Cc7ccc(N8CCC(=O)NC8=O)nc7)CC6)CC5)cn4)ncc3F)cc2n1C(C)C [GT-06742, 1-(5-((4-(1-(6-((5-fluoro-4-(4-fluoro-1-isopropyl-2-methyl-1H-benzo[d]imidazol-6-yl)pyrimidin-2-yl)amino)pyridin-3-yl)piperidin-4-yl)piperazin-1-yl)methyl)pyridin-2-yl)dihydropyrimidine-2,4(1H,3H)-dione] | 100 to 500 nM |  | 10 to 50 nM | 10 to 50 nM | 50 to 100 nM | 100 to 500 nM | 100 to 500 nM |  |  | 10 to 50 nM | 10 to 50 nM |  |  |  |
| Cc1nc2c(F)cc(-c3nc(Nc4ccc(N5CCC(N6CCN(Cc7cc(N8CCC(=O)NC8=O)ncc7F)CC6)CC5)cn4)ncc3F)cc2n1C(C)C [GT-07486, 1-(5-fluoro-4-((4-(1-(6-((5-fluoro-4-(4-fluoro-1-isopropyl-2-methyl-1H-benzo[d]imidazol-6-yl)pyrimidin-2-yl)amino)pyridin-3-yl)piperidin-4-yl)piperazin-1-yl)methyl)pyridin-2-yl)dihydropyrimidine-2,4(1H,3H)-dione] | 50 to 100 nM |  | 50 to 100 nM |  | 100 to 500 nM |  | 50 to 100 nM |  |  |  | 10 to 50 nM |  |  |  |
| Cc1nc2c(F)cc(-c3nc(Nc4ccc(N5CCC(N6CCN(Cc7ccnc(N8CCC(=O)NC8=O)c7)CC6)CC5)cn4)ncc3F)cc2n1C(C)C [GT-07487, 1-(4-((4-(1-(6-((5-fluoro-4-(4-fluoro-1-isopropyl-2-methyl-1H-benzo[d]imidazol-6-yl)pyrimidin-2-yl)amino)pyridin-3-yl)piperidin-4-yl)piperazin-1-yl)methyl)pyridin-2-yl)dihydropyrimidine-2,4(1H,3H)-dione] | 50 to 100 nM |  | 10 to 50 nM |  | 50 to 100 nM |  | 10 to 50 nM |  |  |  | 10 to 50 nM | 30 to 40% | 53 to 60% |  |
| CCN1CCN(Cc2ccc(Nc3ncc(F)c(-c4cc(F)c5nc(C)n(C(C)C)c5c4)n3)nc2)CC1 [abemaciclib, reference compound] |  |  | 1000 to 5000 nM | 500 to 1000 nM | 1000 to 5000 nM | 500 to 1000 nM | 1000 to 5000 nM |  |  | 50 to 100 nM | 10 to 50 nM |  |  | 1000 to 5000 nM |
